Reference: PMC10946275, “New imidazole-2-thiones linked to acenaphythylenone as dual DNA intercalators and topoisomerase II inhibitors: structural optimization, docking, and apoptosis studies” (Journal of Enzyme Inhibition and Medicinal Chemistry, 2024)
“And” between values parts separate entries of the source, which are not always exact repeats. Equal values may be shown once.

What was measured:
MCF-7 cells [1] = assay: Cell cycle analysis (DNA flow cytometry, PI); conditions: for Phase of cell cycle arrest: MCF-7, compound at its IC50; for Cell cycle arrest (%) G0-G1 / Cell cycle arrest (%) G2/M / Cell cycle arrest (%) S: MCF-7, compound at its IC50, 24 h
Protocol: Cell cycle analysis: A FACS Calibur flow cytometer was used to measure the amount of DNA in the cell cycle analysis at 488 nm in accordance with the manufacturer’s recommendations. […] Cells were treated, rinsed twice, and then re-suspended in ice-cold PBS (phosphate buffer saline). After washing, 0.7 ml of 100% ethanol was added, and the mixture was then allowed to sit at 20 °C for 20 min. After washing, 500 μl of RNase was added, and then the mixture was incubated for 30 min. After that, PI was added, and the mixture was incubated without light for 30 min[22]^,[51].
3 Replica for each group Data was expressed using Mean ± SEM.
F: F for One way ANOVA test, Pairwise comparison bet. each 2 groups was done using Post Hoc Test (Tukey)
p: p value for comparing between the studied groups
p0: p value for comparing between Control and each other group
p1: p value for comparing between 5h and 5b
p2: p value for comparing between 5h and Dox
p3: p value for comparing between 5b and Dox
DNA content in the cell cycle analysis was quantified with the help ofa FACS Calibur flow
cytometer at 488 nm according to the manufacturer's instructions. Briefly, 2 × 10^5 cells/well were
cells were washed two times and resuspended in ice-cold phosphate buffer saline PBS. After
washing, 0.7 ml absolute ethanol was then added, followed by incubation at −20°C for 20 min.
After washing, 500 μl RNase was added, followed by incubation for 30 min. PI was then added,
followed by incubation for 30 min (light was avoided).

calf thymus DNA (ctDNA) = assay: Terbium (Tb3+) luminescent biosensor detection of induced DNA damage; type: biochemical; conditions: for Tb luminescence enhancement (induced DNA damage): ctDNA incubated with compound 24 h, emission 545 nm, excitation 270 nm, compared with ctDNA-Tb mixture
Excerpt: Luminescence studies were accomplished in order to examine the possible DNA interaction with the studied compounds. Many luminescent biosensors are reported in literature for studying the possibility of DNA interaction with small molecules. […] Figure 5 presents a schematic diagram for the fluorometric detection of the induced DNA damage using Tb biosensor. Tb^3+ ion in the Tb luminescent probe is a trivalent lanthanide cation having low intrinsic luminescence in aqueous solutions[45]^,[46]. When Tb biosensor is added to a solution of DNA, it interacts differently with double-stranded DNA (dsDNA) and single-stranded DNA (ssDNA). With dsDNA, Tb^3+ ions are electrostatically attracted to the negatively charged phosphate backbone of the DNA. […] Therefore, the assessed compound damages dsDNA, ssDNA sites would be formed opposite to the site of damage and Tb^3+ would directly coordinate to the unpaired nucleobases in this single-stranded site.
For investigating the DNA interaction potential of the fourteen studied compounds, calf thymus DNA (ctDNA) was incubated with each compound for 24 h and then Tb was added to each mixture. Doxorubicin (DOX), a commonly used reference for DNA damaging agent was used and treated the same condition as the studied compounds. Tb luminescent intensity was measured at λmax = 545 nm after excitation at λmax = 270 nm.
Several concentrations within the range of 0.1 pM–200.0 μM of each of the studied compounds were incubated with ctDNA for 24 h. After which, Tb solution was added to aliquots of such mixtures and the luminescence intensity was recorded. Figure 7 presents Tb luminescence intensity as a function of the compound concentration for various compound/ctDNA/Tb mixtures. At minimum concentration of the studied compounds, minimum Tb luminescence was recorded. This reflects that the DNA molecule is undamaged, intact and acquiring a double helical structure. In this conformation, Tb ions are electrostatically attracted to the negatively charged DNA-phosphate backbone showing no increase in its luminescence. For solutions with higher concentrations of compounds 5b, 5h, and 5j (Figure 7a,c,and d). Tb fluorescence increased proportionally with the concentration until a concentration of 100 and 60 μM for compounds 5b, 5h, and 5j, respectively, where no further increase in the fluorescence occurs. This reflects that more DNA damage is induced with increasing concentrations of the three compounds. At concentrations higher than 100 and 60 μM for compounds 5b, 5h, and 5j, respectively, Tb luminescence remains constant at high fluorescence levels. […] Table 1 illustrates the analytical parameters elucidated as shown in Figure 7 for the quantification of the induced DNA damage by the studied compounds. The linearity parameters were calculated from the calibration curve in Figure 7-inset in order to obtain the minimum concentration of the studied compounds that would induce DNA damage.
Fluorescence measurements: Fluorescence spectra were measured between 290 and 800 nm with excitation at 270 nm of 100 µL solutions in a 1 cm path length Suprasil quartz fluorescence cuvette.
The PerkinElmer LS 55 fluorescence spectrophotometer was used to measure the fluorescence. After 24 h of incubation in buffer solution (40 mM Tris, 10 mM NaCl, pH 7.5), aliquots of each DNA-Compound mixture were combined with TbCl3 to confirm DNA damage. The final concentrations were […] ctDNA, 3 mM TbCl3, and 50 µM of each compound in buffer solution (40 mM Tris, 10 mM NaCl, pH 7.5). Calf thymus DNA (ctDNA) was combined with various quantities of each substance, ranging from 0.1 pM to 200 µM, for the experiment. The ultimate concentrations of […] ctDNA and 3 mM were achieved by adding Tb3 + solution to the ctDNA/compound combinations in buffer solution (40 mM Tris, 10 mM NaCl, pH 7.5) after 24 h of incubation.[44]
All chemicals, solvents, media and kits were purchased from commercial suppliers. […]

MCF-7 cells [2] = assay: Annexin V-FITC/PI apoptosis induction analysis (flow cytometry); type: cell-based, human; conditions: MCF-7, compound at its IC50, 24 h
[3] = test system: human breast adenocarcinoma (MCF-7); assay: MTT cytotoxicity assay, MCF-7; type: cell-based; conditions: for IC50: Homo sapiens, MCF7, MTT, 24 h treatment, read-out: IC50 against MCF-7; for folds more active than doxorubicin: MCF-7; for Selectivity Index (SI): against MCF-7, relative to normal MCF-10a
Protocol: (§1) (Supplementary file). Compounds 5b and 5h were screened for their effects on the normal breast cell line MCF‐10a. Cells at a density of 1 × 104 were seeded in a 96‐well plate at 37 °C for 48 h under 5% CO2. After incubation, the cells were treated with different concentrations of the prepared molecules and incubated for 24 h. MTT dye was added after 24 h of drug treatment and incubated for 4 h at 37 °C. Also, 100 μl of dimethyl sulphoxide was added to each well to dissolve the purple formazan formed. The colour intensity of the formazan product, which represents the growth condition of the cells, was quantified using an enzyme‐linked immunosorbent assay (ELISA) plate reader at 570 nm. The experiments were carried out with at least three replicates and they were repeated at least three times.
(§2) All chemicals, solvents, media and kits were purchased from commercial suppliers.
(§3) In vitro anticancer screening […]
(§4) against three cancer cell lines namely: hepatocellular carcinoma (HepG2), human breast adenocarcinoma (MCF-7) and human colon cancer (HCT -116) utilizing MTT assay2. Compounds […]
(§5) 5b and 5h were screened for their effects on the normal breast cell line MCF‐10a. Cells at a density of 1 × 104 were seeded in a 96‐well plate at 37°C for 48 hr under 5% CO2. After incubation, the cells were treated with different concentrations of the prepared molecules and incubated for 24 hr.
(§6) MTT dye was added after 24 h of drug treatment and incubated for 4 h at 37°C. Also, 100 μl of dimethyl sulphoxide was added to each well to dissolve the purple formazan formed. The color intensity of the formazan product, which represents the growth condition of the cells, was quantified using an enzyme‐linked immunosorbent assay (ELISA) plate reader at 570 nm. The experiments were carried out with at least three replicates and they were repeated at least three […]
(§7) *: Statistically significant at p ≤ 0.05
(§8) Means with any Common letter (a-e) are not significant (OR Means with totally Different letters (a-e) are significant)

[4] = test system: hepatocellular carcinoma (HepG2); assay: MTT cytotoxicity assay, HepG2; type: cell-based; conditions: Homo sapiens, 24 h treatment, read-out: IC50 against HepG2
Protocol: as §1, §2, §3, §4, §5, §6, §7, §8

[5] = test system: human colon cancer (HCT-116); assay: MTT cytotoxicity assay, HCT-116; type: cell-based; conditions: 24 h treatment, read-out: IC50 against HCT-116
Protocol: as §2, §3, §4, §5, §6, §7, §8

[6] = test system: normal breast cell line (MCF-10a); assay: MTT cytotoxicity assay, normal breast cell line MCF-10a; type: cell-based; conditions: Homo sapiens, 24 h treatment, read-out: IC50 against MCF-10a (normal cell)
Protocol: as §1, §5, §6, §7
Means with any Common letter (a-e) are not significant (OR Means with totally Different letters (a-e) are significant) Annexin V-FITC/PI Apoptosis Induction Analysis 3
Apoptosis detection in MCf-7 cells was assessed using BioVision® annexin‐V‐FITC apoptosis detection kit according to the manufacturer's instructions and quantified by flow cytometry at 488

[7] = molecular target: T1, human DNA topoisomerase II-β (TOPII-β) (Homo sapiens, UniProt Q02880); assay: In vitro topoisomerase II inhibitory assay (ELISA kit); type: biochemical; conditions: ELISA kit MBS#942146; read-out: IC50 against topo II enzyme
T1 construct: own knowledge) MBS#942146
Excerpt: Doxorubicin was used as a positive control. […] (Supplementary file).
SEM: Standard error of mean
as §7
Means with any Common letter (a-d) are not significant (OR Means with totally Different letters (a-d) are significant)
Doxorubicin was used as a positive control.

T1 sequence (Q02880 whole entry): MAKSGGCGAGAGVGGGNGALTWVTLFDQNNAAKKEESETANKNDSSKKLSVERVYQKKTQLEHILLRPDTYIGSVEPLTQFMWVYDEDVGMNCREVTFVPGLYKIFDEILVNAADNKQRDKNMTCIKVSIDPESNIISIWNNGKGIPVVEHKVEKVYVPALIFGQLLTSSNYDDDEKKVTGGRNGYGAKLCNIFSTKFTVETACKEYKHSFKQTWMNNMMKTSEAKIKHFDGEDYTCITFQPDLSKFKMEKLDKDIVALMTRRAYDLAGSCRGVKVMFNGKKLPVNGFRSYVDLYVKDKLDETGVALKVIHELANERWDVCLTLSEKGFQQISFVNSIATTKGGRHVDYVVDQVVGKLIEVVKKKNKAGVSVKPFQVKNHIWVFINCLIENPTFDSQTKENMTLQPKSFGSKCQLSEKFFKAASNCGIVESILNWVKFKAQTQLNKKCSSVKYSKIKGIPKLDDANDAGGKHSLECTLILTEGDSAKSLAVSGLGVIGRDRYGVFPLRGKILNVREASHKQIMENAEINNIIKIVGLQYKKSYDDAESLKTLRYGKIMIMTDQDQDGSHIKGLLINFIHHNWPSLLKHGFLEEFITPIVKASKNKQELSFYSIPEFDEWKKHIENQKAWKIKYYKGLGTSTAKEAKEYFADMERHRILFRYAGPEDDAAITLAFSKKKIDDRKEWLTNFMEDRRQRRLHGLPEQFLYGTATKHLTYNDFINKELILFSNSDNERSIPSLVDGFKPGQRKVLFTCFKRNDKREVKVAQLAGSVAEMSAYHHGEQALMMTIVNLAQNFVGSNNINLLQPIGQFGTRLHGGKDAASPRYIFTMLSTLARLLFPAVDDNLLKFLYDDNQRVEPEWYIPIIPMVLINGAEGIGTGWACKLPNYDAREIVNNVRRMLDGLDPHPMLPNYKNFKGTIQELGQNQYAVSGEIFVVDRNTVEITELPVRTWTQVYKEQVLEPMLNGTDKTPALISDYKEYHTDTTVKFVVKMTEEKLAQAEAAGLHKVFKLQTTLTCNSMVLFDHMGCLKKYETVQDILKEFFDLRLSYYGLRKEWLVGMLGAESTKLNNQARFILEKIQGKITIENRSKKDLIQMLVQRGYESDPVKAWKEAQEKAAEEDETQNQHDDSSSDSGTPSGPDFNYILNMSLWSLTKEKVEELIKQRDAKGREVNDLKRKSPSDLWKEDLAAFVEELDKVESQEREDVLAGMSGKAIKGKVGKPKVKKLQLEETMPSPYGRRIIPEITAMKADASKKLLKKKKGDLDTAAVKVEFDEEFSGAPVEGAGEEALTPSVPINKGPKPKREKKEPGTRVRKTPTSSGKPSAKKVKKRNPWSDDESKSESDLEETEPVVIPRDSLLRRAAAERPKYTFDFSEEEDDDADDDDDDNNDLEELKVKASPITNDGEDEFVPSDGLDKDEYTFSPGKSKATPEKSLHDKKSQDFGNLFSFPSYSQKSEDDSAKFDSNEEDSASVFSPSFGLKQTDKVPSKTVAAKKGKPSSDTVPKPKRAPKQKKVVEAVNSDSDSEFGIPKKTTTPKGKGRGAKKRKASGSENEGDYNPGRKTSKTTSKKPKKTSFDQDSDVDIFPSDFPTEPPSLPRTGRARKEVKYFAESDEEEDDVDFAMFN

Row | Structure (SMILES) | Phase of cell cycle arrest (MCF-7 cells [1]) | Tb luminescence enhancement (induced DNA damage) (calf thymus DNA (ctDNA)) | Concentration at which Tb luminescence stops increasing (maximum DNA damage) (calf thymus DNA (ctDNA); ctDNA, 24 h incubation) [µM] | LOD (limit of detection; minimum concentration inducing detectable damage in ctDNA) (calf thymus DNA (ctDNA); ctDNA, 24 h incubation) [nM] | LOQ (limit of quantitation) (calf thymus DNA (ctDNA); ctDNA, 24 h incubation) [nM] | melting point [°C] | Apoptosis results: Early apoptosis (MCF-7 cells [2]) [%] | Apoptosis results: Late apoptosis (MCF-7 cells [2]) | Apoptosis results: Total (MCF-7 cells [2]) [%] | IC50 [3] [µM] | Selectivity Index (SI) [3] | IC50 [4] [µM] | IC50 [5] [µM] | IC50 [6] [µM] | also measured
1 | O=C1C(=Nn2cc(-c3ccccc3)n(-c3ccccc3)c2=S)c2cccc3cccc1c23 [5b, 2-((3,4-Diphenyl-2-thioxo-2,3-dihydro-1H-imidazol-1-yl)imino)acenaphthylen-1(2H)-one] | S phase | significant enhancement | 100 | 7.78 | 25.9 | 240 to 242 | 15.3 ± 0.50 | 22.7 ± 0.43% and 22.69% | 46.6 ± 0.57 | 5.11 | 17.58 | 7.4 | 17.1 | 89.8 | Cell cycle arrest (%) G0-G1 (MCF-7 cells [1]): 52.7 ± 0.30%; Cell cycle arrest (%) G2/M (MCF-7 cells [1]): 13.4 ± 0.41%; Cell cycle arrest (%) S (MCF-7 cells [1]): 33.8 ± 0.70%; Apoptosis results: Necrosis (MCF-7 cells [2]): 8.7 ± 0.44%; folds more active than doxorubicin [3]: 1.5 folds
2 | COc1cccc(-n2c(-c3ccccc3)cn(N=C3C(=O)c4cccc5cccc3c45)c2=S)c1 [5e, 2-((3-(3-Methoxyphenyl)-4-phenyl-2-thioxo-2,3-dihydro-1H-imidazol-1-yl)imino)-acenaphthylen-1(2H)-one] | – | significant enhancement | 80 | 14.2 | 46.9 | 212 to 214 | – | – | – | – | – | – | – | – | Concentration up to which no enhancement of Tb luminescence intensity occurs (calf thymus DNA (ctDNA); ctDNA, 24 h incubation): 20 µM
3 | C=CCn1c(-c2ccccc2)cn(N=C2C(=O)c3cccc4cccc2c34)c1=S [5f, 2-((3-Allyl-4-phenyl-2-thioxo-2,3-dihydro-1H-imidazol-1-yl)imino)acenaphthylen-1(2H)-one] | – | minimum enhancement | – | – | – | 212 to 214 | – | – | – | – | – | – | – | – | –
4 | O=C1C(=Nn2cc(-c3ccc(Cl)cc3)n(-c3ccccc3)c2=S)c2cccc3cccc1c23 [5h, 2-((4-(4-chlorophenyl)-3-phenyl-2-thioxo-2,3-dihydro-1H-imidazol-1-yl)imino)-acenaphthylen-1(2H)-one] | S phase | significant enhancement | 100 | 7.14 | 23.8 | 260 to 262 | 16.5 ± 0.64 | 28.4 ± 0.62% and 28.52% | 52.5 ± 0.68 | 2.65 | 49.27 | 4.93 | 43.5 | 131 | IC50 [7]: 340 nM; Cell cycle arrest (%) G0-G1 (MCF-7 cells [1]): 48.6 ± 0.73%; Cell cycle arrest (%) G2/M (MCF-7 cells [1]): 9.7 ± 0.36%; Cell cycle arrest (%) S (MCF-7 cells [1]): 41.7 ± 0.39%; Apoptosis results: Necrosis (MCF-7 cells [2]): 7.5 ± 0.68%; folds more active than doxorubicin [3]: 3 folds
5 | COc1cccc(-n2c(-c3ccc(Cl)cc3)cn(N=C3C(=O)c4cccc5cccc3c45)c2=S)c1 [5j, 2-((4-(4-Chlorophenyl)-3-(3-methoxyphenyl)-2-thioxo-2,3-dihydro-1H-imidazol-1-yl)-imino)acenaphthylen-1(2H)-one] | – | significant enhancement | 60 | 12.7 | 42.4 | 282 to 284 | – | – | – | – | – | 7.9 | 10.8 | – | –
6 | C=CCn1c(-c2ccc(Cl)cc2)cn(N=C2C(=O)c3cccc4cccc2c34)c1=S [5k, 2-((3-Allyl-4-(4-chlorophenyl)-2-thioxo-2,3-dihydro-1H-imidazol-1-yl)imino)-acenaphthylen-1(2H)-one] | – | minimum enhancement | – | – | – | 262 to 264 | – | – | – | – | – | – | – | – | –
7 | C=CCn1c(-c2ccc3ccccc3c2)cn(N=C2C(=O)c3cccc4cccc2c34)c1=S [5n, 2-((3-Allyl-4-(naphthalen-2-yl)-2-thioxo-2,3-dihydro-1H-imidazol-1-yl)imino)-acenaphthylen-1(2H)-one] | – | minimum enhancement | – | – | – | 230 to 232 | – | – | – | – | – | – | – | – | –
8 | COc1cccc2c1C(=O)c1c(O)c3c(c(O)c1C2=O)C[C@@](O)(C(=O)CO)C[C@@H]3O[C@H]1C[C@H](N)[C@H](O)[C@H](C)O1 [doxorubicin, reference compound] | G1/S phase | significant enhancement | – | 4.09 | 13.7 | – | 8.3 ± 0.53 | 31.3 ± 0.62% | 46.2 ± 0.53 | 8.24 | 3.9 | – | – | 32.4 | Cell cycle arrest (%) G0-G1 (MCF-7 cells [1]; listed as Dox): 63.5 ± 0.51%; Cell cycle arrest (%) G2/M (MCF-7 cells [1]; listed as Dox): 2.4 ± 0.73%; Cell cycle arrest (%) S (MCF-7 cells [1]; listed as Dox): 34.2 ± 0.22%; Apoptosis results: Early apoptosis (MCF-7 cells [2]; listed as Dox): 8.3 ± 0.53%; Apoptosis results: Late apoptosis (MCF-7 cells [2]; listed as Dox): 31.3 ± 0.62%; Apoptosis results: Necrosis (MCF-7 cells [2]; listed as Dox): 6.6 ± 0.61%
